The text below walks through data of US10208007B2, “Use of strigolactones and strigolactone analogs for treating proliferative conditions” (The State of Israel, Ministry of Agriculture & Rural …, priority 2011, dated 2019).

Read-outs that look alike come from different tables or passages of the source.

Holding throughout (type): cell-based, human
For one test, the system named is BJ fibroblasts. The experiment in a line: Crystal violet monolayer growth assay. The note with it: up to 10 ppm, up to 10 days. The protocol: (§1) Cells were seeded at 1500 (MDA-MB-231, MDA-MB-436 and BJ fibroblasts) or 4000 cells per well of 96 well plates. […] At the indicated time points, individual plates were fixed and stained with crystal violet-methanol solution (50 μl per well) for 15 minutes, washed several times with distilled water and plates were air dried overnight. Sodium citrate solution (0.1M) was used to solubilize bound crystal violet and optical densities were measured at 560 nm (Glomax®-Multi Detection plate reader, Promega).
(§2) Cells (MDA-MB-231, MDA-MB-436 and BJ fibroblasts) were seeded at 1500 or 4000 cells per well of 96 well plates. […] At the indicated time points, individual plates were fixed and stained with crystal violet solution (0.5% crystal violet and 25% methanol) for 15 min, washed several times in distilled water and air dried overnight. Sodium citrate solution (0.1M) was used to solubilize bound crystal violet and optimal densities were measured at 560 nm (Glomax®—Multi Detection plate reader, Promega).
(§3) The effect of GR-24 (FIG. 3) on long-term cancer cell line growth was assessed by crystal violet assay. MCF-7 (estrogen receptor positive (ER+), tumorigenic, nonmetastatic), (A) MDA-MB-231, MDA-MB-436 (ER negative (−), metastatic) and BJ fibroblasts (normal, non-neoplastic line) were treated with GR-24 at a dose range of 0.5 to 10 ppm (1.65-33 μM). Growth was monitored for up to 10 days. At the indicated time points, plates were stained with crystal violet. Data are reported as the Percent Absorbance (560 nm) of vehicle control. Average±standard deviations (SD). Student's t-test (2-tailed, paired) was used to evaluate GR-24 treated groups with vehicle (control) groups at final time point and regarded as being significant if p<0.05 (*), very significant if p<0.01 (**), extremely significant if p<0.001 (***). (B) Is a graph showing the light absorbance reading (560 nm) after 7 days exposure to the indicated doses of GR-24. Data expressed as a percentage of vehicle controls. Average of triplicate samples+SD. Horizontal line (---) marks 50% reduction in Absorbance (560 nm) relative to vehicle controls.

For another test, the system named is MCF-7. The experiment in a line: Crystal violet monolayer growth assay. The protocol: as §1, §2, §3
In the next test the test system is MDA-MB-231. The test can be described thus: Crystal violet monolayer growth assay. The settings on record: for IC50: after 7 days, read-out: IC50 of long-term proliferation. The procedure: as §1, §2, §3
A further test deals with MDA-MB-436. The experiment in a line: Crystal violet monolayer growth assay. The settings on record: for IC50: after 7 days, read-out: IC50 of long-term proliferation. The protocol: as §1, §2, §3
The test system of another test is MDA-MB-231 mammospheres. The experiment in a line: Mammosphere formation. The protocol:
Adherent cells were gently trypsinized, (0.05% trypsin/EDTA) washed twice in PBS and filtered through a […] cell sieve to obtain a single cell suspensions. Cells were diluted to a concentration of 10,000 cell/ml in serum-free phenol-red free MEBM (MEGM Bulletkit, Lonza) supplemented with 5 μg/ml bovine insulin, 20 ng/ml recombinant epidermal growth factor, 20 ng/ml basic fibroblast growth factor (Gibco), 1×B27 supplement, 0.5 μg/ml hydrocortisone (MEGM Bulletkit, Lonza). For MDA-MB-231 mammosphere cultures serum-free phenol red-free CnT-27 medium with growth additives (CellnTEC Advanced cell systems, Bern, Switzerland) was used as previously described. 0.1 ml was seeded per well of a Ultralow attachment 96 well plates. The following day the indicated doses of GR-24 (ppm) or vehicle alone (0.6% acetone f/c) were added. Media was replenished every 3-4 days. Self-renewal capacity of the mammospheres was determined by re-plating and producing further generations of mammospheres. Secondary mammospheres were cultivated by dissociation (trypsinization with gently vortexing) of 10-14 day old primary mammospheres. Single cell suspensions were obtained as described above.

The subject of a further test is ALDH1. The experiment in a line: Aldefluor ALDH expression. The settings on record: MCF-7 primary mammospheres; reduced from 6%. The procedure:
MCF-7 mammospheres were trypsinized, gently vortexed and passed through a 40 uM cell filter to produce single cell suspensions. Cells (5×10^5) were washed and re-suspended in growth media (Lonza). To identify the Aldefluor-stained cell population with ALDH1 enzymatic activity, the Aldefluor kit (Stem Cell Technologies), which is designed for optimal identification and isolation of stem cells through specific interaction with human ALDH1 was used. Briefly, cells were suspended in Aldefluor assay buffer containing uncharged ALDH1-substrate, BODIPY-aminoacetaldehyde (BAAA), and incubated for 45 min at 37° C., with gently vortexing every 15 min. BAAA is taken up by living cells through passive diffusion and then converted by intracellular ALDH into a negatively charged reaction product BODIPY-aminoacetate, which is retained inside cells expressing high levels of ALDH1, causing the cells to become brightly fluorescent. Fluorescent ALDH1-expressing cells were detected in the green fluorescence channel (520-540 nm) of a FACScan instrument (BD Biosciences). […] PI (Sigma) fluorescence was detected using the orange fluorescence channel. Cells incubated with BAAA and DEAB were used to establish the baseline fluorescence of cells and ALDH1-positive fraction. Data were analyzed by using Cell Quest software (BD Biosciences). […]

For `CC1=C[C@H](O/C=C2/C(=O)O[C@@H]3c4ccccc4C[C@H]23)OC1=O` (relative stereo) [GR-24, (3aR*,8bS*,E)-3-(((R*)-4-methyl-5-oxo-2,5-dihydrofuran-2-yloxy)methylene)-3,3a,4,8b-tetrahydro-2H-indeno[1,2-b]furan-2-one], the “Growth compared to vehicle” value in the test on BJ fibroblasts is “no significant reduction in growth”. Moreover, the IC50 was 18.8 µM with MCF-7 (Homo sapiens, MCF7, 168 h, after 7 days, read-out: IC50 of long-term proliferation); 22.1 µM in the test on MDA-MB-231 (Homo sapiens, MDA-MB-231, 168 h); 18.8 µM in the test on MDA-MB-231; 18.8 µM in the test on MDA-MB-436 (Homo sapiens, MDA-MB-436, 168 h); 17.2 µM in the test on MDA-MB-436. In addition, the “IC50 of long-term proliferation” value in the test with MCF-7 (after 7 days) is given as 5.7 ppm. Also, the “Concentrations resulting in a significant reduction in growth compared to vehicle” value in the test on MCF-7 (up to 10 days), with MDA-MB-231 (up to 10 days) and with MDA-MB-436 (up to 10 days) was 2.5-5 ppm each time. For the same molecule, the Mammosphere growth entry with MDA-MB-231 mammospheres (2.5 ppm) is “severely attenuated”. For the same molecule, the Mammosphere formation entry in the test with MDA-MB-231 mammospheres (5 ppm) is listed as “completely blocked”. Further, in the test with MDA-MB-231 mammospheres (MDA-MB-231), the “Concentration to block mammosphere formation, fold lower than IC50 dose for monolayer growth” value amounted to 2.7 fold. In addition, in the test on ALDH1, the “ALDH activity (ALDH positive cells) after treatment” value is reported as 2%.
